Measurements published in patent US20180370912A1, “COMPOUNDS AND METHODS FOR TREATING DISEASES MEDIATED BY PROTEIN DISULFIDE ISOMERASE” (Beth Israel Deaconess Medical Center, Inc., priority 2017, published 2018).
Bridge positions count the residues as written; N and C are the ends. Square brackets hold non-standard residues; d marks the D form. Peptide text beside a SMILES is read from it. * marks the point of attachment. Ileψ(thiazoline)Cys = CC[C@H](C)[C@H](N)C1=N[C@H](C(=O)*)CS1; dOrn = NCCC[C@@H](N)C(=O)O

Assays:
ERp5 [1] = molecular target: T1, ERp5 (Homo sapiens, UniProt Q15084); test: Insulin reductase assay, thiol isomerase selectivity; assay type: biochemical; settings: 10-fold IC50, FIG. 2
T1 construct: recombinant His-tagged full-length ERp5, ERp72 and PDI domain fragments; His; made in house; host or cells: Escherichia coli Origami B (DE3), pET-15b
T1 sequence (Q15084 20-440): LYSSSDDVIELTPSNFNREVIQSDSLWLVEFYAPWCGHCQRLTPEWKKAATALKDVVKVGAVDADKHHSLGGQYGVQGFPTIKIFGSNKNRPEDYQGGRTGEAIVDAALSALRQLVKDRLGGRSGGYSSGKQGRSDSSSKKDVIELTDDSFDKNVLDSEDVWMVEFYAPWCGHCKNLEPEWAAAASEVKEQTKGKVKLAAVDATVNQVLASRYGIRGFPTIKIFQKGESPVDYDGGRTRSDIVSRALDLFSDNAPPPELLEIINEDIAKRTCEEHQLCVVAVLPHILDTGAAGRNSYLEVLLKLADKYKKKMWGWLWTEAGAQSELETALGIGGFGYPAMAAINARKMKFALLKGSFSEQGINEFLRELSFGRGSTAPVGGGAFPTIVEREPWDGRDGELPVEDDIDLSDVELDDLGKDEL
Description: (§1) The thiol isomerase-catalyzed reduction of insulin was assayed by measuring the increase in turbidity as detected at an optical density (OD) of 650 nm using a Spectramax M3 (Molecular Devices, Sunnyvale, Calif.). The validation assay consisted of 175 nM of PDI in a solution containing 100 mM potassium phosphate (pH 7.4) containing 0.2 mM bovine insulin, 2 mM EDTA, and 0.3 mM DTT (all purchased from Sigma Aldrich, St. Louis, Mo.), inhibitors were used at the concentrations indicated. The reaction was performed at 25° C. for one hour and thirty minutes. For assays of thiol isomerase selectivity, 11 nM PDI, ERp57 or Thioredoxin, or 33 nM ERpS were assayed in similar buffer conditions as described above and inhibitors were used at the indicated concentration. The reaction was performed at 37° C. for forty-five minutes. For assays of isolated domains studies, 400 nM protein was used, except for a, a′ and ab, in which 800 nM protein was used. The assay was performed in similar buffer conditions as described above. Bepristat 2a and N-(2,4-Dimethoxyphenyl)-N-(1-oxo-2-propyn-1-yl)-2-(2-thienyl)glycyl-glycine ethyl ester (PACMA-31) were used at a final concentration of 15 μM in these studies.

ERp57 [2] = molecular target: T2, ERp57 (Homo sapiens, UniProt P30101); test: as above; assay type: biochemical; settings: FIG. 2
T2 construct: FLAG; made in house; host or cells: Escherichia coli Origami B (DE3), pET-15b
T2 sequence (P30101 25-505): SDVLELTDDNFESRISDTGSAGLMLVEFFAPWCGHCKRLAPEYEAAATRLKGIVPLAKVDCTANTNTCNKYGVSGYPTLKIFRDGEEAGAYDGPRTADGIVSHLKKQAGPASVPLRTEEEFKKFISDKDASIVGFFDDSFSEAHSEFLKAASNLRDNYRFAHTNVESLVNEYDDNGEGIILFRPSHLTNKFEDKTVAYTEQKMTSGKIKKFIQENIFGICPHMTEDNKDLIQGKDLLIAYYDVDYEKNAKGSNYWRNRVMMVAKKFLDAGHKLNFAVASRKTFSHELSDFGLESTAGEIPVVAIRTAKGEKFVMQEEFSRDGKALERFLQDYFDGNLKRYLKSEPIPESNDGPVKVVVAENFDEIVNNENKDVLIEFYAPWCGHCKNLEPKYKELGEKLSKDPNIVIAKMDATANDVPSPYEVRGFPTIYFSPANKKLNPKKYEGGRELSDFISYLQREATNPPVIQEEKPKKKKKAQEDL
Description: as §1

thioredoxin [3] = molecular target: T3, thioredoxin (Homo sapiens, UniProt P10599); test: as above; assay type: biochemical; settings: 10-fold IC50, FIG. 2
T3 sequence (P10599 1-105): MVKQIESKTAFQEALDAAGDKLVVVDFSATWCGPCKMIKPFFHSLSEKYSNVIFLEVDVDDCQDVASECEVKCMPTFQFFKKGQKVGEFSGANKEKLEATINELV
Description: as §1

PDI [4] = molecular target: T4, PDI (Homo sapiens, UniProt P07237); test: Di-eosin-GSSG disulfide reductase assay; assay type: biochemical; settings: for change of apparent KM in the di-eosin-GSSG assay of PDI reductase activity / change of apparent kcat in the di-eosin-GSSG assay of PDI reductase activity: FIG. 6d
T4 construct: FLAG; made in house; host or cells: Escherichia coli Origami B (DE3), pET-15b
Description: (§2) The probe di-eosin glutathione disulfide, di-eosin-GSSG, was prepared as previously described in Raturi, A., Vacratsis, P. O., Seslija, D., Lee, L. & Mutus, B., Biochem J 391, 351-357 (2005). Reductase activity of purified thiol isomerases and PDI domains was monitored in a 96-well fluorescence plate format. PDI, AGHA-PDI, ERpS, ERp57, ERp72 and PDI domains were assayed at 50 nM in the presence or absence of the indicated small molecules, peptides or cathepsin G. The assay included 100 mM potassium phosphate (pH 7.4) containing 2 mM EDTA, 5 μM DTT and 150 nM of the di-eosin GSSG probe. The increase in fluorescence was determined for 20 minutes by excitation at 520 nm and emission at 550 nm in a Synergy Biotek 4. The reduction of 150 nM di-eosin-GSSG by 5 μM DTT in the presence or absence of mentioned small molecules, peptides or proteins served as a negative control.
Michaelis Menten analysis was assayed using PDI at 20 nM and small molecules, peptides or cathepsin G at concentrations causing maximal augmentation under similar buffer conditions as described above. 8-point response curves were generated using a range of different di-eosin-GSSG concentrations (50-5000 nM). Enzyme kinetics analysis was performed using Graphpad Prism 5.0.

ERp5 [5] = molecular target: T1, ERp5; test: Maleimide-polyethylene glycol-2-biotin (MPB) binding; settings: 150 μM inhibitor, FIG. 2c, FIG. 8
Description: (§3) Maleimide-Polyethanol glycol-2-Biotin (MPB) binding experiments were performed in a reaction volume of 37.5 μL with 5 μM of thiol isomerase or bovine serum albumin (BSA) in Tris-buffered saline (TBS), in the presence and absence of 1 mM of N-ethylmaleimide (NEM) or bacitracin, and 150 μM of the mentioned other inhibitors. The reaction mixture was incubated at 37° C. for 1 hour. Subsequently, the reaction mixtures were incubated with 25 μM of MPB. The labeling was performed for 20 minutes at 25° C. A total of 12.5 μL of 4× Laemmli Sample Buffer with 5% β-mercaptoethanol was added to each of the samples, followed by heating at 95° C. for 10 minutes. From each sample, 10 μL was loaded on a 12% SDS-PAGE gel, followed by transfer on a nitrocellulose membrane. After blocking the membrane with TBS-T containing 5% BSA for one hour, the membrane was incubated with a 1:2000 dilution of Cy5-tagged Streptavidin for an hour in the dark. Detection of the immunoblots was performed using ImageQuant LAS 4000 and analysis was performed using ImageQuant TL software.

ERp57 [6] = molecular target: T2, ERp57; test: as above; settings: 150 μM inhibitor, FIG. 2c, FIG. 8
Description: as §3

thioredoxin [7] = molecular target: T3, thioredoxin; test: as above; settings: 150 μM inhibitor, FIG. 2c, FIG. 8
Description: as §3

thrombus formation = settings: literature; cited from earlier work
full-length PDI = molecular target: T5, full-length PDI (Homo sapiens, UniProt P07237); test: Small-angle X-ray scattering (SAXS); settings: PDI complexed with compound; full-length oxidized PDI 40.0 Å, FIG. 5d
T5 construct: FLAG; made in house; host or cells: Escherichia coli Origami B (DE3), pET-15b
Description: Further purification of full-length PDI was achieved by gel filtration. PDI (1.5, 3.0 and 4.5 mg/mL) was dialyzed against 20 mM Tris, 150 mM NaCl, 5% glycerol (pH: 8.0) containing 0.5 mM bepristat 1b or 2b or DMSO control at 4° C. overnight. Evaluation by SAXS was performed on the SIBYLS beamline in the Advanced Light Source using a high throughput data collection method.

ERp5 [8] = molecular target: T1, ERp5; test: Di-eosin-GSSG disulfide reductase assay; assay type: biochemical
Description: as §2

ERp57 [9] = molecular target: T2, ERp57; test: Di-eosin-GSSG disulfide reductase assay; assay type: biochemical
Description: as §2

ERp72 = molecular target: T6, ERp72 (Homo sapiens, UniProt P13667); test: Di-eosin-GSSG disulfide reductase assay; assay type: biochemical
T6 construct: recombinant His-tagged full-length ERp5, ERp72 and PDI domain fragments; His; made in house; host or cells: Escherichia coli Origami B (DE3), pET-15b
T6 sequence (P13667 21-645): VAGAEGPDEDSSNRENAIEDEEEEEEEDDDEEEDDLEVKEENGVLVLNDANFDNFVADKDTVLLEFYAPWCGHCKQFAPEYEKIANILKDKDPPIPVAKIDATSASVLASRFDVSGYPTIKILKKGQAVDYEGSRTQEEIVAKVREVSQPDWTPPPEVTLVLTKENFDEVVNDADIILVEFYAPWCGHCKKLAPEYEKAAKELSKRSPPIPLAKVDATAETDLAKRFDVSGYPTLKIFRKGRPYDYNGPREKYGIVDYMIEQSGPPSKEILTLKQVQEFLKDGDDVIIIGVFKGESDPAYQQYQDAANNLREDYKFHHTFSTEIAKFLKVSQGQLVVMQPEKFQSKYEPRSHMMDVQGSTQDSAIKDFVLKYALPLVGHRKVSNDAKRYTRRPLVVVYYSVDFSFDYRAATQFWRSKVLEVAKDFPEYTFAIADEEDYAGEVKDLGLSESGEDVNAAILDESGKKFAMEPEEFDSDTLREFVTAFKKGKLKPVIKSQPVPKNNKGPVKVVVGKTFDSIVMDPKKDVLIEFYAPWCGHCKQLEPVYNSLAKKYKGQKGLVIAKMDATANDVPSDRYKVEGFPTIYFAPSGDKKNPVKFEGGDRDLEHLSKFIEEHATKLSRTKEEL
Description: as §2

PDI [10] = molecular target: T4, PDI; settings: cited from earlier work

T4 sequence (P07237 18-508): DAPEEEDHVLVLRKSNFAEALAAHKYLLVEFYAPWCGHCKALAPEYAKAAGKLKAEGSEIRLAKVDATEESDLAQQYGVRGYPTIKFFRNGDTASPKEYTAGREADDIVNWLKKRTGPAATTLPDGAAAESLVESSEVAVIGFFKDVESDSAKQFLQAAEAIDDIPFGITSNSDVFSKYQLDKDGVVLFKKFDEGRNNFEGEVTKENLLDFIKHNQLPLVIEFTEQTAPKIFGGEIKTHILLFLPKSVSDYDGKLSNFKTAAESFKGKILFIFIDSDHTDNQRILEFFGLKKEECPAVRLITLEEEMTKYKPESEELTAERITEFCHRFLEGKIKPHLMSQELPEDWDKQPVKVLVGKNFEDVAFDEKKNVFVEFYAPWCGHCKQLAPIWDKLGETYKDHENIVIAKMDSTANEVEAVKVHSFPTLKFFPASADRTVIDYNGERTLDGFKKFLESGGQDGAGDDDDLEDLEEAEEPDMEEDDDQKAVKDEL
T5 sequence (P07237 18-508): as above

## CC[C@H](C)[C@H](N)C1=N[C@H](C(=O)N[C@@H](CC(C)C)C(=O)N[C@H](CCC(=O)O)C(=O)N[C@H](C(=O)N[C@H]2CCCCNC(=O)[C@H](CC(N)=O)NC(=O)[C@@H](CC(=O)O)NC(=O)[C@H](Cc3cnc[nH]3)NC(=O)[C@@H](Cc3ccccc3)NC(=O)[C@H]([C@@H](C)CC)NC(=O)[C@@H](CCCN)NC2=O)[C@@H](C)CC)CS1 [bacitracin] ({Ileψ(thiazoline)Cys}-L[dE]IK[dOrn]I[dF]H[dD]N; lactam 4-C)
ERp5 [1]
  inhibition of reductase activity of ERp5: showed activity against all thiol isomerases tested
ERp57 [2]
  inhibition of reductase activity of ERp57: showed activity against all thiol isomerases tested
Thioredoxin [3]
  inhibition of reductase activity of thioredoxin: showed activity against all thiol isomerases tested
PDI [4]
  cleavage of di-eosin-GSSG probe by PDI (reductase activity at catalytic cysteines): blocked PDI-mediated cleavage of di-eosin-GSSG
ERp5 [5]
  reaction of MPB with the catalytic cysteines of ERp5: interfered with the reaction of maleimide-polyethylene glycol-2-biotin (MPB)
ERp57 [6]
  reaction of MPB with the catalytic cysteines of ERp57: interfered with the reaction of maleimide-polyethylene glycol-2-biotin (MPB)
Thioredoxin [7]
  reaction of MPB with the catalytic cysteines of thioredoxin: interfered with the reaction of maleimide-polyethylene glycol-2-biotin (MPB)
Thrombus formation
  thrombus formation in vivo: inhibits thrombus formation in vivo

## CCOC(=O)c1c(CNCCN(CC)CC)n(-c2ccccc2)c2cc(Br)c(O)cc12 [bepristat 2b]
full-length PDI
  gyration radius (Rg) of PDI: 35.9 Å

## C[C@H](N)C(=O)NCC(=O)N[C@H]1CSSC[C@@H](C(=O)O)NC(=O)[C@H](CO)NC(=O)[C@H]([C@@H](C)O)NC(=O)[C@H](Cc2ccccc2)NC(=O)[C@H]([C@@H](C)O)NC(=O)[C@H](CCCCN)NC(=O)[C@H](Cc2c[nH]c3ccccc23)NC(=O)[C@H](Cc2ccccc2)NC(=O)[C@H](Cc2ccccc2)NC(=O)[C@H](CC(N)=O)NC(=O)[C@H](CCCCN)NC1=O [somatostatin, reference compound]
PDI [4]
  change of apparent KM in the di-eosin-GSSG assay of PDI reductase activity: decreased the apparent KM

## cathepsin G: a protein substrate of PDI
PDI [4]
  cleavage of di-eosin-GSSG probe by PDI (reductase activity at catalytic cysteines): elicits enhanced reductase activity
  change of apparent KM in the di-eosin-GSSG assay of PDI reductase activity: decreased the apparent KM
  change of apparent kcat in the di-eosin-GSSG assay of PDI reductase activity: None of them altered the apparent kcat
ERp5 [8]
  cleavage of di-eosin-GSSG by ERp5 (catalytic activity): inhibited the catalytic activity of ERp5 and ERp57 to varying degrees
ERp57 [9]
  cleavage of di-eosin-GSSG by ERp57 (catalytic activity): inhibited the catalytic activity of ERp5 and ERp57 to varying degrees
ERp72
  cleavage of di-eosin-GSSG by ERp72 (catalytic activity): augmented the catalytic activity of ERp72

## mastoparan [reference compound]
PDI [4]
  cleavage of di-eosin-GSSG probe by PDI (reductase activity at catalytic cysteines): enhanced the ability of PDI to cleave di-eosin-GSSG in a dose-dependent manner
  change of apparent KM in the di-eosin-GSSG assay of PDI reductase activity: decreased the apparent KM
  change of apparent kcat in the di-eosin-GSSG assay of PDI reductase activity: None of them altered the apparent kcat
ERp5 [8]
  cleavage of di-eosin-GSSG by ERp5 (catalytic activity): inhibited the catalytic activity of ERp5 and ERp57 to varying degrees
ERp57 [9]
  cleavage of di-eosin-GSSG by ERp57 (catalytic activity): inhibited the catalytic activity of ERp5 and ERp57 to varying degrees
ERp72
  cleavage of di-eosin-GSSG by ERp72 (catalytic activity): augmented the catalytic activity of ERp72
PDI [10]
  PDI activity in RNase refolding assay: inhibits PDI activity in an RNase refolding assay
